This note sets out measurements from patent US8080575B2, “Gamma-lactam compounds for promoting bone growth” (Osteogenex Inc., priority 2008, dated 2011).

The test system of test [1] is C57BL/6 mice. In words: Serum osteocalcin (biochemical marker of bone formation) measured by EIA Elisa in mice treated daily i.p. for 30 days. The test is classed as in vivo. To be noted: four month old male C57BL/6 mice, fraction. How it is done: (§1) Four month old male C57BL/6 mice were treated daily with saline vehicle or the sclerostin inhibitor of Formula Ib:
(§2) [drawing 9] at low, mid, or high doses (via i.p) for 30 days. Study endpoints included a biochemical marker of bone formation, osteocalcin measured by EIA Elisa, and measurement of trabecular bone volume by mico-CT analysis on the proximal tibia.

In test [2] the test system is C57BL/6 mice. The experiment in a line: Trabecular bone volume by micro-CT analysis on the proximal tibia in mice treated daily i.p. for 30 days. To be noted: four month old male C57BL/6 mice. The class given is in vivo. How it is done:
as §1, §2

With `O=C1CCCN1c1ccccc1O` [Formula Ib], the “increase in serum osteocalcin over baseline” value was 0.04 in the test on C57BL/6 mice [1] (0.5 mg/kg (C), also printed as 4%); 0.24 in the test with C57BL/6 mice [1] (2 mg/kg (B), also printed as 24%); 0.27 in the test on C57BL/6 mice [1] (10 mg/kg (A), also printed as 27%). Also, the “percent change in tibia long bone volume increase versus saline controls” value is 13% in the test on C57BL/6 mice [2] (0.5 mg/kg (C)), 40% in the test with C57BL/6 mice [2] (2 mg/kg (B)) and 69% in the test on C57BL/6 mice [2] (10 mg/kg (A)).
